From US5747447A, “Stable polypeptide composition” (COR Therapeutics, priority 1995, dated 1998)
*1 amine or outer side, *2 acyl side, *3 side chain or, on linkers, in order; H or OH if unused. Where a SMILES comes first, the peptide text is derived from it. Bridges are numbered along the chain shown (N, C = ends). [ ]: non-standard residue; d: D form. The star is where a group is joined. Phe(4-NO2) = N[C@@H](Cc1ccc([N+](=O)[O-])cc1)C(=O)O; X1 = N=C(NCCCC[C@H](N[*:1])C(=O)[*:2])c1ccccc1; X2 = CC(=N)NCCCC[C@H](N[*:1])C(=O)[*:2]; NMeR = CN[C@@H](CCCNC(=N)N)C(=O)O; NMeF = CN[C@@H](Cc1ccccc1)C(=O)O; hArg = N=C(N)NCCCC[C@H](N)C(=O)O; dPen = CC(C)(S)[C@@H](N)C(=O)O; Pen = CC(C)(S)[C@H](N)C(=O)O; Pip = O=C(O)[C@@H]1CCCCN1; Orn = NCCC[C@H](N)C(=O)O; Thz = O=C(O)[C@@H]1CSCN1; Aib = CC(C)(N)C(=O)O; βAla = NCCC(=O)O; Mpa = O=C(O)CCS; Sar = CNCC(=O)O; For = O=C*

Target: ADP-induced human platelet aggregation (Homo sapiens, UniProt P05106+P08514)
Sequence (P08514 32-1039): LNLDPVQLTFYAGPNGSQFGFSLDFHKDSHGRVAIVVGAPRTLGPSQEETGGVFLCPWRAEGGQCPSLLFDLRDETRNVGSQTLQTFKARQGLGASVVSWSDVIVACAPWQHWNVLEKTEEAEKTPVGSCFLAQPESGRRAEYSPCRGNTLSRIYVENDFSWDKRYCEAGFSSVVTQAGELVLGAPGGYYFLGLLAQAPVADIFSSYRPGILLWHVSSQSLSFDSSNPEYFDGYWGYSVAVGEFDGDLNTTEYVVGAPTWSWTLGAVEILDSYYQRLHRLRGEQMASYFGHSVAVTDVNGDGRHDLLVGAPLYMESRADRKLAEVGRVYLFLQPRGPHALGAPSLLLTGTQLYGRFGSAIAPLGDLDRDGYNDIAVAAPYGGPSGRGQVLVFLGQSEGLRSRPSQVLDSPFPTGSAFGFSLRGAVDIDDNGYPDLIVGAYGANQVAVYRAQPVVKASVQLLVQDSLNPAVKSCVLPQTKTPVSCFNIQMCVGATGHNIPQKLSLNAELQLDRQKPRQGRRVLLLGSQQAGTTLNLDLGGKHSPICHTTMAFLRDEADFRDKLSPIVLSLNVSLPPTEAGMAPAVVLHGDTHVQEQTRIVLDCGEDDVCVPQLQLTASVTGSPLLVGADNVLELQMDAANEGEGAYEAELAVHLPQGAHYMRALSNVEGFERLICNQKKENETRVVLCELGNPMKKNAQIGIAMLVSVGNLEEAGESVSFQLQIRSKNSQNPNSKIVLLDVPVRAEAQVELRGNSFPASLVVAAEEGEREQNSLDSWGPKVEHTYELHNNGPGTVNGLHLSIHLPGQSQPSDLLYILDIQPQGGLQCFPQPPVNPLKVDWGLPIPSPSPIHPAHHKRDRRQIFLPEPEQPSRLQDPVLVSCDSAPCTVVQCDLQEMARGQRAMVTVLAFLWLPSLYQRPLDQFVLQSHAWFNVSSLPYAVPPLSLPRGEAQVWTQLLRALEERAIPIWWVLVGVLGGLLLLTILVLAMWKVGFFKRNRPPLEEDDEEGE
Sequence (P05106 27-788): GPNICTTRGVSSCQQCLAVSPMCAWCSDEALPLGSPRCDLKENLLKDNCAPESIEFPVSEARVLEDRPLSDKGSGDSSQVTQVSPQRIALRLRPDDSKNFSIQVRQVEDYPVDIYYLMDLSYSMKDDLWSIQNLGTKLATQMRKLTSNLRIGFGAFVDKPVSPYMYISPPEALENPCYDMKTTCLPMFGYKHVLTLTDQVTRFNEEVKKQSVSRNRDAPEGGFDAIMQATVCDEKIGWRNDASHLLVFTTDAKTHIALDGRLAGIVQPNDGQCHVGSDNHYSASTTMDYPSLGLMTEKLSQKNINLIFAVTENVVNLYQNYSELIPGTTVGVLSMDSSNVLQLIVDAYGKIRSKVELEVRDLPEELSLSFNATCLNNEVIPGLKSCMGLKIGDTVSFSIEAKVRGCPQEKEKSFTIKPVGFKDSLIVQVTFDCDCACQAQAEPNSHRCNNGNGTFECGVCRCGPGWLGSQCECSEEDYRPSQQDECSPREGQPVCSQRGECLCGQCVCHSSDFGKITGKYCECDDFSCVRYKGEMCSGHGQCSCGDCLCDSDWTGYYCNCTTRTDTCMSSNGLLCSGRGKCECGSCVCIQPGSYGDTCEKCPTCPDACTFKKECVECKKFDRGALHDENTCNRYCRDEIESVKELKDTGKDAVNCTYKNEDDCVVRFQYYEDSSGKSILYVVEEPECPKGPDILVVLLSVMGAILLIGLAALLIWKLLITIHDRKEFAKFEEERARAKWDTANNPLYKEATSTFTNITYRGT
Assay: standard aggregation inhibition assay (ADP-induced human platelet aggregation)
Assay type: cell-based
Details: ADP-induced human platelet aggregation; read-out: Appr, IC50
Text: 2. Standard assays directly applied to platelet aggregation, such as those described by Gann, Z.-R., et al., J Biol Chem (1988) 263:19827-19832; Huang, T. F., et al., J Biol Chem (1987) 262:16157-16163; Biochemistry (1989) 28:661-666, cited above and incorporated herein by reference;

| SMILES | IC50 [µM] |
| --- | --- |
| CC1(C)SSCCC(=O)N[C@@H](CCCCN)C(=O)NCC(=O)N[C@@H](CC(=O)O)C(=O)N[C@@H]1C(N)=O [Analog #9, Mpr-K-G-D-Pen-NH2] ([Mpa]KGD[Pen]-NH2; disulfide 1-5) | 25 |
| CC(=O)N[C@H]1CSSC(C)(C)[C@@H](C(N)=O)NC(=O)[C@H](CC(=O)O)NC(=O)CNC(=O)[C@H](CCCNC(=N)N)NC1=O [Analog #11, Acetyl-C-R-G-D-Pen-NH2] (Ac-CRGD[Pen]-NH2; disulfide 1-5) | 5 |
| NCCC[C@@H]1NC(=O)[C@@H](N)CSSC[C@@H](C(N)=O)NC(=O)[C@@H]2CCCN2C(=O)[C@H](Cc2c[nH]c3ccccc23)NC(=O)[C@H](CC(=O)O)NC(=O)CNC1=O [Analog #36, C-Orn-G-D-W-P-C-NH2] (H-C[Orn]GDWPC-NH2; disulfide 1-7) | 150 to 200 |
| C[C@H]1NC(=O)[C@H](CCCCN)NC(=O)[C@@H](N)CSSC[C@@H](C(N)=O)NC(=O)[C@@H]2CCCN2C(=O)[C@H](Cc2c[nH]c3ccccc23)NC(=O)[C@H](CC(=O)O)NC1=O [Analog #38, C-K-A.dagger.-D-W-P-C-NH2] (H-CK[dA]DWPC-NH2; disulfide 1-7) | > 200 |
| CN1CC(=O)N[C@H](C(N)=O)CSSC[C@H](N)C(=O)N[C@@H](CCCCN)C(=O)NCC(=O)N[C@@H](CC(=O)O)C(=O)N[C@@H](Cc2c[nH]c3ccccc23)C1=O [Analog #39, C-K-G-D-W-(Sar)-C-NH2] (H-CKGDW[Sar]C-NH2; disulfide 1-7) | 5 |
| NC(=O)[C@@H]1CSSC[C@H](N)C(=O)N[C@@H](CCCCNC=O)C(=O)NCC(=O)N[C@@H](CC(=O)O)C(=O)N[C@@H](Cc2c[nH]c3ccccc23)C(=O)N2CCC[C@H]2C(=O)N1 [Analog #40, C-K(Formyl)-G-D-W-P-C-NH2] (H-CK(For)GDWPC-NH2; disulfide 1-7) | > 200 |
| CN1CC(=O)N[C@@H](CC(=O)O)C(=O)N[C@@H](Cc2c[nH]c3ccccc23)C(=O)N2CCC[C@H]2C(=O)N[C@H](C(N)=O)CSSC[C@H](N)C(=O)N[C@@H](CCCCN)C1=O [Analog #43, C-K-(Sar)-D-W-P-C-NH2] (H-CK[Sar]DWPC-NH2; disulfide 1-7) | 50 |
| NCCCC[C@@H]1NC(=O)[C@@H](N)CSSC[C@@H](C(N)=O)NC(=O)[C@@H]2CCCN2C(=O)[C@H](Cc2ccc([N+](=O)[O-])cc2)NC(=O)[C@H](CC(=O)O)NC(=O)CNC1=O [Analog #44, C-K-G-D-(4-NO2 -Phe)-P-C-NH2] (H-CKGD[Phe(4-NO2)]PC-NH2; disulfide 1-7) | 75 |
| CN1C(=O)[C@H](CC(=O)O)NC(=O)CNC(=O)[C@H](CCCCN)NC(=O)[C@@H](N)CSSC[C@@H](C(N)=O)NC(=O)[C@@H]2CCCN2C(=O)[C@@H]1Cc1ccccc1 [Analog #45, C-K-G-D-(NMePhe)-P-C-NH2] (H-CKGD[NMeF]PC-NH2; disulfide 1-7) | > 200 |
| CC1(C)SSCCC(=O)N[C@@H](CCCCN)C(=O)NCC(=O)N[C@@H](CC(=O)O)C(=O)N[C@H](Cc2c[nH]c3ccccc23)C(=O)N2CCC[C@H]2C(=O)N[C@@H]1C(N)=O [Analog #50, Mpr-K-G-D-W.dagger.-P-Pen-NH2] ([Mpa]KGD[dW]P[Pen]-NH2; disulfide 1-7) | > 200 |
| CC1(C)SSCCC(=O)N[C@@H](CCCCN)C(=O)NCC(=O)N[C@@H](CC(=O)O)C(=O)N[C@@H](Cc2c[nH]c3ccccc23)C(=O)N2CCC[C@H]2C(=O)N[C@@H]1C(N)=O [Analog #51, Mpr-K-G-D-W-P-Pen-NH2] ([Mpa]KGDWP[Pen]-NH2; disulfide 1-7) | 0.75 |
| CC1(C)SSCCC(=O)N[C@@H](CCCCN)C(=O)NCC(=O)N[C@@H](CC(=O)O)C(=O)N[C@@H](Cc2c[nH]c3ccccc23)C(=O)N2CCC[C@H]2C(=O)N[C@H]1C(N)=O [Analog #52, Mpr-K-G-D-W-P-Pen.dagger.-NH2] ([Mpa]KGDWP[dPen]-NH2; disulfide 1-7) | 5 |
| CC1(C)SSCCC(=O)N[C@@H](CCCCN)C(=O)NCC(=O)N[C@@H](CC(=O)O)C(=O)N[C@@H](Cc2c[nH]c3ccccc23)C(=O)N2CCC[C@@H]2C(=O)N[C@@H]1C(N)=O [Analog #53, Mpr-K-G-D-W-P.dagger.-Pen-NH2] ([Mpa]KGDW[dP][Pen]-NH2; disulfide 1-7) | > 200 |
| CC1(C)SSCCC(=O)N[C@@H](CCCCN)C(=O)NCC(=O)N[C@H](CC(=O)O)C(=O)N[C@@H](Cc2c[nH]c3ccccc23)C(=O)N2CCC[C@H]2C(=O)N[C@@H]1C(N)=O [Analog #54, Mpr-K-G-D.dagger.-W-P-Pen-NH2] ([Mpa]KG[dD]WP[Pen]-NH2; disulfide 1-7) | > 100 |
| NCCCC[C@@H]1NC(=O)CCSSC[C@@H](C(N)=O)NC(=O)[C@@H]2CSCN2C(=O)[C@H](Cc2c[nH]c3ccccc23)NC(=O)[C@H](CC(=O)O)NC(=O)CNC1=O [Analog #55, Mpr-K-G-D-W-(Thz)-C-NH2] ([Mpa]KGDW[Thz]C-NH2; disulfide 1-7) | 2 |
| CC1(C)SSCCC(=O)N[C@@H](CCCCN)C(=O)NCC(=O)N[C@@H](CC(=O)O)C(=O)N[C@@H](Cc2c[nH]c3ccccc23)C(=O)N2CCCC[C@H]2C(=O)N[C@@H]1C(N)=O [Analog #59, Mpr-K-G-D-W-(Pip)-Pen-NH2] ([Mpa]KGDW[Pip][Pen]-NH2; disulfide 1-7) | 1 |
| NCCCC[C@@H]1NC(=O)CCSSC[C@H](C(N)=O)NC(=O)[C@@H]2CCCN2C(=O)[C@H](Cc2c[nH]c3ccccc23)NC(=O)[C@H](CC(=O)O)NC(=O)CNC1=O [Analog #61, Mpr-K-G-D-W-P-C.dagger.-NH2] ([Mpa]KGDWP[dC]-NH2; disulfide 1-7) | 15 |
| CC1(C)SSCCC(=O)N[C@H](CCCCN)C(=O)NCC(=O)N[C@@H](CC(=O)O)C(=O)N[C@@H](Cc2c[nH]c3ccccc23)C(=O)N2CCC[C@H]2C(=O)N[C@@H]1C(N)=O [Analog #62, Mpr-K.dagger.-G-D-W-P-Pen-NH2] ([Mpa][dK]GDWP[Pen]-NH2; disulfide 1-7) | 2.5 |
| CC1(C)SSCCC(=O)N[C@@H](CCCCNC(=N)N)C(=O)NCC(=O)N[C@@H](CC(=O)O)C(=O)N[C@@H](Cc2c[nH]c3ccccc23)C(=O)N2CCC[C@H]2C(=O)N[C@@H]1C(N)=O [Analog #63, Mpr-(Har)-G-D-W-P-Pen-NH2] ([Mpa][hArg]GDWP[Pen]-NH2; disulfide 1-7) | 0.1 |
| CC(=N)NCCCC[C@@H]1NC(=O)CCSSC[C@@H](C(N)=O)NC(=O)[C@@H]2CCCN2C(=O)[C@H](Cc2c[nH]c3ccccc23)NC(=O)[C@H](CC(=O)O)NC(=O)CNC1=O [Analog #64, Mpr-(Acetimidyl-Lys)-G-D-W-P-C-NH2] ([Mpa][X2]GDWPC-NH2; disulfide 1-7) | 0.25 |
| CC(=N)NCCCC[C@@H]1NC(=O)CCSSC(C)(C)[C@@H](C(N)=O)NC(=O)[C@@H]2CCCN2C(=O)[C@H](Cc2c[nH]c3ccccc23)NC(=O)[C@H](CC(=O)O)NC(=O)CNC1=O [Analog #69, Mpr-(Acetimidyl-Lys)-G-D-W-P-Pen-NH2] ([Mpa][X2]GDWP[Pen]-NH2; disulfide 1-7) | 0.5 |
| N=C(NCCCC[C@@H]1NC(=O)CCSSC[C@@H](C(N)=O)NC(=O)[C@@H]2CCCN2C(=O)[C@H](Cc2c[nH]c3ccccc23)NC(=O)[C@H](CC(=O)O)NC(=O)CNC1=O)c1ccccc1 [Analog #70, Mpr-(Phenylimidyl-Lys)-G-D-W-P-C-NH2] ([Mpa][X1]GDWPC-NH2; disulfide 1-7) | 0.5 |
| CN1CC(=O)N[C@@H](CC(=O)O)C(=O)N[C@@H](Cc2c[nH]c3ccccc23)C(=O)N2CCC[C@H]2C(=O)N[C@H](C(N)=O)C(C)(C)SSCCC(=O)N[C@@H](CCCCNC(=N)N)C1=O [Analog #71, Mpr-Har-Sar-D-W-P-Pen-NH2] ([Mpa][hArg][Sar]DWP[Pen]-NH2; disulfide 1-7) | 2.5 |
| CC1(C)SSCCC(=O)N[C@@H](CCCCNC(=N)c2ccccc2)C(=O)NCC(=O)N[C@@H](CC(=O)O)C(=O)N[C@@H](Cc2c[nH]c3ccccc23)C(=O)N2CCC[C@H]2C(=O)N[C@@H]1C(N)=O [Analog #72, Mpr-(Phenylimidyl-Lys)-G-D-W-P-Pen-NH2] ([Mpa][X1]GDWP[Pen]-NH2; disulfide 1-7) | 0.5 |

Same assay, conditions: PAI activity, Example 15; read-out: Appr.IC20

| SMILES | IC20 [µM] |
| --- | --- |
| N=C(N)NCCCC[C@@H]1NC(=O)[C@@H]2CCCN2C(=O)CCSSC[C@@H](C(N)=O)NC(=O)[C@@H]2CCCN2C(=O)[C@H](Cc2c[nH]c3ccccc23)NC(=O)[C@H](CC(=O)O)NC(=O)CNC1=O [PAI 80, Mpr-P-Har-G-D-W-P-C-NH2] ([Mpa]P[hArg]GDWPC-NH2; disulfide 1-8) | 1.29 |
| N=C(N)NCCCC[C@@H]1NC(=O)CNC(=O)CCSSC[C@@H](C(N)=O)NC(=O)[C@@H]2CCCN2C(=O)[C@H](Cc2c[nH]c3ccccc23)NC(=O)[C@H](CC(=O)O)NC(=O)CNC1=O [PAI 81, Mpr-G-Har-G-D-W-P-C-NH2] ([Mpa]G[hArg]GDWPC-NH2; disulfide 1-8) | 7.47 |
| CC1(C)NC(=O)CCSSC[C@@H](C(N)=O)NC(=O)[C@@H]2CCCN2C(=O)[C@H](Cc2c[nH]c3ccccc23)NC(=O)[C@H](CC(=O)O)NC(=O)CNC(=O)[C@H](CCCCNC(=N)N)NC1=O [PAI 83, Mpr-Aib-Har-G-D-W-P-C-NH2] ([Mpa][Aib][hArg]GDWPC-NH2; disulfide 1-8) | 2.2 |
| CN1C(=O)CCSSC[C@@H](C(N)=O)NC(=O)[C@@H]2CCCN2C(=O)[C@H](Cc2c[nH]c3ccccc23)NC(=O)[C@H](CC(=O)O)NC(=O)CNC(=O)[C@H](CCCCNC(=N)N)NC(=O)[C@@H]1CCCNC(=N)N [PAI 84, Mpr-(N-Me-Arg)-Har-G-D-W-P-C-NH2] ([Mpa][NMeR][hArg]GDWPC-NH2; disulfide 1-8) | 0.25 |
| C[C@H]1NC(=O)CCSSC[C@@H](C(N)=O)NC(=O)[C@@H]2CCCN2C(=O)[C@H](Cc2c[nH]c3ccccc23)NC(=O)[C@H](CC(=O)O)NC(=O)CNC(=O)[C@H](CCCCNC(=N)N)NC1=O [PAI 86, Mpr-A.dagger.-Har-G-D-W-P-C-NH2] ([Mpa][dA][hArg]GDWPC-NH2; disulfide 1-8) | 1.15 |
| N=C(N)NCCCC[C@@H]1NC(=O)CCNC(=O)CCSSC[C@@H](C(N)=O)NC(=O)[C@@H]2CCCN2C(=O)[C@H](Cc2c[nH]c3ccccc23)NC(=O)[C@H](CC(=O)O)NC(=O)CNC1=O [PAI 87, Mpr-(β-Ala)-Har-G-D-W-P-C-NH2] ([Mpa][βAla][hArg]GDWPC-NH2; disulfide 1-8) | 0.92 |
